Data taken from patent publication US20240076667A1, “APPLICATION OF ANTISENSE OLIGONUCLEOTIDE TARGETING PBX1 PROMOTER REGION G-QUADRUPLEX IN PREPARATION OF MEDICINE FOR TREATING MELANOMA” (JILIN UNIVERSITY, priority 2022, published 2024).
“Also recorded” adds a separate entry of the source.

Tests used:
PBX1 rG1 = assay: EGFP reporter gene system, confocal fluorescence; type: cell-based; settings: HEK293T cells; 2 μM PDS or 5 μM TMPyP4
Experimental: Construction of an EGFP reporter vector: the reporter vector (Inovogen Tech. Co., Beijing, China) with pLV-EGFP-N as the backbone gene encodes the rG1 site of the PBX1 5′UTR sequence. By using the Strata gene rapid change site-directed mutagenesis kit, point mutation is performed on the rG1 site.
Given that G4s in the promoter and transcript are involved in the regulation of transcription and translation related processes, it is speculated that dG1 in the PBX1 promoter may regulate the transcription of PBX1, and rG1 in 5′UTR of the PBX1 transcript may regulate the transcription of PBX1. In addition, the luciferase reporter assay is first performed. The dG1 promoter sequence (designated as dG1-wt) and mutated dG1 promoter sequence (designated as dG1-mut) of PBX1 are cloned into pGL3 luciferase reporter vector. […] In addition, this embodiment further constructs an enhanced green fluorescent protein (EGFP) reporter gene system, to study the effect of rG1 on translation. The rG1 transcript sequence (designated as rG1-wt) and mutant rG1 transcript sequence (designated as rG1-mut) of PBX1 are fused to 5′UTR of EGFP, and the reporter gene vector is transfected into HEK293T cells. By confocal fluorescence experiments, the EGFP fluorescence intensity of rG1-WT is less than that of rG1-MUT, and PDS or TMPyP4 decreases the fluorescence intensity of rG1-WT in HEK293T cells (FIG. 3B). […]

PBX1 = PBX1 mRNA and protein levels by qRT-PCR and western blot in A375 cells; type: cell-based, human; settings: for mRNA level of PBX1: qRT-PCR; for protein level of PBX1: western blot, normalized to GAPDH
Experimental: RNA extraction and quantitative RT-PCR detection: total RNA is extracted from cultured cells by using TRIzol (Invitrogen, USA), then is converted into cDNA by SuperScript III First-Strand Synthesis SuperMix (Invitrogen, USA). qRT-PCR detection is performed by using SYBR Green®Mix (Invitrogen, USA) in ABI 7500 (Invitrogen, USA). A relative expression quantity of RNA is calculated by using a comparative CT method.
Immunoblotting: for protein analysis of a whole-cell lysate, cells are lysed with RIPA (CWBIO, Beijing, China) buffer solution. For tumors, liquid nitrogen is first used to pulverize tissues. Then, the lysate is generated on ice with the RIPA (CWBIO, Beijing, China) buffer solution for 20 minutes, and then centrifuged at 4° C., 13000 rpm for 15 minutes. Protein-containing supernatant is transferred to the fresh microcentrifuge tube, and stored at −20° C. (short-term storage) for subsequent use. The protein is quantified by using the BIO-RAD DC protein assay. The total proteins are electrophoresed on SDS-polyacrylamide gels. Then, the proteins are transferred to polyvinylidene difluoride (PVDF) membrane. After incubation with the primary antibody overnight on the shaker at 4° C., the membrane is washed 6 times (5 minutes each time) with TBS-T (Invitrogen, USA). Then, blots are incubated with horseradish peroxidase (IRP)-conjugated secondary antibodies for 60 minutes at RT on the plate shaker. The membrane is cleaned by TBS-T (6×5 minutes). Detection on immunoreactive bands is performed by using SuperSignalmWest Pico chemiluminescence substrate kit (Thermo Fisher Scientific, USA) and Western blotting detection system (BioRad, USA). GAPDH is used as the loading control for western blotting. The intensity levels of the bands are normalized to GAPDH.

A375 cells [1] = assay: Cell proliferation assay (CCK-8), A375; type: cell-based, human; settings: dose-dependent manner
Experimental: (§1) Cell proliferation assay: cell viability is determined by the cell counting kit-8 (CCK-8) according to the manufacturer's instructions (Abcam, UK). Cells (2000 cells per well) are incubated in the 96-well plate in triplicate and then added to each well at various time points at the final concentration of 10%, and incubation is continued at 37° C. After 60 minutes, the absorbance of the sample is measured at the wavelength of 450 nm. Data is analyzed using GraphPad Prism software.

PBX1 dG1 = assay: PBX1 dual luciferase reporter assay in HEK293T, A375 and B16-F10 cells; type: cell-based
Experimental: Dual luciferase reporter assay: for the PBX1 luciferase reporter gene assay, PBX1 luciferase reporter gene plasmid and pRL-TK plasmid are co-transfected into HEK293T, A375 and B16-F10 cells in the 96-well plate by Lipofectamine 2000 (Invitrogen, USA). 48 hours after transfection, cells are collected and analyzed using the Dual-Luciferase® Reporter Assay System (Promega, USA). The firefly activity is normalized to the activity of Renilla luciferase.
Given that G4s in the promoter and transcript are involved in the regulation of transcription and translation related processes, it is speculated that dG1 in the PBX1 promoter may regulate the transcription of PBX1, and rG1 in 5′UTR of the PBX1 transcript may regulate the transcription of PBX1. In addition, the luciferase reporter assay is first performed. The dG1 promoter sequence (designated as dG1-wt) and mutated dG1 promoter sequence (designated as dG1-mut) of PBX1 are cloned into pGL3 luciferase reporter vector. […] In addition, this embodiment further constructs an enhanced green fluorescent protein (EGFP) reporter gene system, to study the effect of rG1 on translation. The rG1 transcript sequence (designated as rG1-wt) and mutant rG1 transcript sequence (designated as rG1-mut) of PBX1 are fused to 5′UTR of EGFP, and the reporter gene vector is transfected into HEK293T cells. By confocal fluorescence experiments, the EGFP fluorescence intensity of rG1-WT is less than that of rG1-MUT, and PDS or TMPyP4 decreases the fluorescence intensity of rG1-WT in HEK293T cells (FIG. 3B). Finally, this embodiment studies the potential effect of PBX1 G4s on PBX1 expression of A375 and B16-F10 cells.

dG1 = assay: Thermal stability of PBX1 dG1 with G4-specific ligands; type: binding
B16-F10 cells [2] = assay: Cell proliferation assay (CCK-8), B16-F10; type: cell-based, mouse; settings: dose-dependent manner
Experimental: as §1

B16-F10 cells [3] = assay: Colony forming assay, B16-F10; type: cell-based, mouse
Experimental: Colony forming assay: for the colony forming assay, A375 and B16-F10 cells are seeded on 6-well plates with the density of 500-1000 cells. After two weeks, staining is performed by using 1% crystal violet at room temperature, rinsing is performed with PBS and tap water, and the number of colonies is counted.

A375 cells [4] = assay: In vitro cell invasion experiment (Transwell), A375; type: cell-based, human; settings: Transwell with Matrigel, 24 hours
Experimental: (§2) In vitro cell invasion experiment: in the Transwell invasion experiment, Matrigel is used as an invasive supraluminal membrane barrier (Corning, USA). The lower transwell chamber is filled with 2.5% serum containing DMEM medium. The cells are suspended at an upper chamber. After incubation for 24 hours, the filter is removed, and cells on the membrane are fixed by using methanol. Cells stained with 0.5% crystal violet infiltrate the surrounding matrix. The dye is washed with water and the cells are examined under the microscope (Leica, Germany). Six micrographs are taken for each person.

B16-F10 cells [5] = assay: In vitro cell invasion experiment (Transwell), B16-F10; type: cell-based, mouse; settings: Transwell with Matrigel, 24 hours
Experimental: as §2

Compound: C[n+]1ccc(-c2c3nc(c(-c4cc[n+](C)cc4)c4ccc([nH]4)c(-c4cc[n+](C)cc4)c4ccc([nH]4)c(-c4cc[n+](C)cc4)c4nc2C=C4)C=C3)cc1 [TMPyP4]
- EGFP fluorescence intensity of rG1-WT (PBX1 rG1): decreases
- mRNA level of PBX1 (PBX1): inhibit; also recorded: remarkably reduces
- protein level of PBX1 (PBX1): inhibit; also recorded: remarkably reduces
- cell viability (activity) measured by CCK8 (A375 cells [1]): reduce; also recorded: remarkably reduces
- luciferase activity of dG1-mut transfected cells (PBX1 dG1): does not affect
- luciferase activity of dG1-wt transfected cells (PBX1 dG1): remarkably inhibits
- thermal stability of dG1 (dG1): remarkably enhance
- cell viability (activity) measured by CCK8 (B16-F10 cells [2]): reduce; also recorded: remarkably reduces
- colony formation (B16-F10 cells [3]): inhibits
- invasion (A375 cells [4]): inhibit
- invasion (B16-F10 cells [5]): inhibit

Compound: NCCOc1cc(C(=O)Nc2cc(OCCN)c3ccccc3n2)nc(C(=O)Nc2cc(OCCN)c3ccccc3n2)c1 [PDS, Pyridostatin]
- EGFP fluorescence intensity of rG1-WT (PBX1 rG1): decreases
- mRNA level of PBX1 (PBX1): inhibit; also recorded: remarkably reduces
- protein level of PBX1 (PBX1): inhibit; also recorded: remarkably reduces
- cell viability (activity) measured by CCK8 (A375 cells [1]): reduce; also recorded: remarkably reduces
- luciferase activity of dG1-mut transfected cells (PBX1 dG1): does not affect
- luciferase activity of dG1-wt transfected cells (PBX1 dG1): remarkably inhibits
- thermal stability of dG1 (dG1): remarkably enhance
- cell viability (activity) measured by CCK8 (B16-F10 cells [2]): reduce; also recorded: remarkably reduces
- colony formation (B16-F10 cells [3]): inhibits
- invasion (A375 cells [4]): inhibit
- invasion (B16-F10 cells [5]): inhibit
